System: HepG2 cells
Assay: Ketogenic activity in HepG2 cells (ketone levels in cell supernatants)
Type: cell-based
Conditions: each component 2.4 mM, glucose-free media, up to 135 minutes, FIG. 1
Description: In this Example, the ketogenic activities of various compositions were tested in HepG2 cells. More particularly, the ketogenic activity of butyric acid (2.4 mM) (“BA”) alone; beta-hydroxybutyrate (2.4 mM) (“BHB”) alone; caprylic acid (2.4 mM) (“CA”) alone; caprylic acid (2.4 mM) combined with butyric acid (2.4 mM); and a combination of caprylic acid (2.4 mM), butyric acid (2.4 mM), and beta-hydroxybutyrate (2.4 mM) were all tested in HepG2 cells. Each compound (or combination of compounds) was added to a solvent containing glucose-free media that included 10% fetal bovine serum (FBX), 1 mM sodium pyruvate, and 1 mM glutamine.
Each test composition was administered to HepG2 cells in a cell culture plate. Each composition was tested with three replicates. Ketone levels in the HepG2 cell supernatants were measured at the time of administration (time=0) and every 45 minutes thereafter, up to 135 minutes. The results are presented as the difference between the ketone concentration that was measured at each time point (i.e., measured every 45 minutes) and the ketone concentration that was measured at time=0 for each test composition, such that any positive measurement indicates an increase in ketone levels from the baseline time=0 measurement.

Row | Compound | induction of ketogenesis (generation of ketones)
1 | CCCC(=O)O [butyric acid] | neither butyric acid alone, nor caprylic acid alone, was shown to induce ketogenesis
2 | CCCCCCCC(=O)O [caprylic acid, caprylic acid (octanoic acid)] | neither butyric acid alone, nor caprylic acid alone, was shown to induce ketogenesis
